Measured values from US20130253022A1 (FOX CHASE CHEMICAL DIVERSITY CENTER, INC., priority 2010, published 2013).

What was measured:
[1] = tested on: hippocampal neurons; assay: Heavy metal toxicity in hippocampal cultures, neuronal viability (CFDA); conditions: test concentration of metal ions 10 μM, medium without antioxidants
Excerpt: All compounds were screened with dissociated hippocampal cultures derived from embryonic day 18 rats as the primary test system. With this preparation, primary neurons were used to test for prevention of heavy metal toxicity by the disclosed compounds. In brief, hippocampal tissue was obtained commercially through Brain Bits (Springfield, Ill.) and cultures prepared as previously described (Brewer, G. J. Serum-free B27/neurobasal medium supports differentiated growth of neurons from the striatum, substantia nigra, septum, cerebral cortex, cerebellum and dentate gyms, J. Neurosci. Res., 1995, 42, 674-683). The hippocampal neurons were platted at low density (10,000 cell/well) in a 96-well format and maintained in serum-free medium consisting of Neurobasal Medium supplemented with B27 and GlutaMAX (Gibco). Pre-coated poly-L-lysine coated plates are used because of the preferential adherence and survival of hippocampal neurons on this matrix support.
Heavy metal toxicity is associated with the occurrence of seizures (Mathie et al. Zinc and copper: pharmacological probes and endogenous modulators of neuronal excitability. Pharmacol. Ther. 2006, 111, 567-583). […] To establish the dose-dependency of test agents, day 18 hippocampal cultures were utilized to study the toxicity produced after treatment with the heavy metals and neuroprotection after treatment with test compounds. […] Prior to treatment, the B27/Neural Basal media of the cultures were replaced with B27 neural basal medium without antioxidants for 18 hours. […] Further, the removal of antioxidants in the medium was performed to obtain a significant and reproducible toxic signal for heavy metal treatment of the hippocampal neurons.
Toxicity produced by heavy metals is measured by decreases in neuronal viability. Carboxyfluorescein (CFDA) was used a vital stain for all cell toxicity and neuroprotection studies. With the use of the CytoFluor fluorimeter, the CFDA assay was employed to assess the viability of neurons. CFDA is a dye that becomes fluorescent upon cell entry and cleavage by cytosolic esterases (Petroski and Geller. Selective labeling of embryonic neurons cultures on astrocyte monolayers with 5(6)-carboxyfluorescein diacetate [CFDA]. J. Neurosci. Methods 1994, 52, 23-32). Neuronal specificity is obtained relative to astrocytes because the cleaved dye is extruded extracellularlly by glia with time, while dye in neurons remains intracellular.

[2] = tested on: Hippocampal Cultures; assay: Neuroprotection from glutamate excitotoxicity, propidium iodide (cell death) assay; format: cell-based; conditions: Rattus norvegicus, read-out: NP from Glutamate PI EC50
Excerpt: (§1) Cell cultures: All compounds are screened with dissociated hippocampal cultures derived from embryonic day 18 rats as the primary test system. With this preparation, primary neurons are used to test for toxicity as well as neuroprotection in a highly relevant experimental system to epilepsy. In brief, hippocampal tissue are obtained commercially through Brain Bits (Springfield, Ill.) and cultures prepared as previously described by Brewer (Brewer, G. J. Serum-free B27/neurobasal medium supports differentiated growth of neurons from the striatum, substantia nigra, septum, cerebral cortex, cerebellum and dentate gyms, J. Neurosci. Res. 1995, 42, 674-683). The hippocampal neurons are platted at low density (10,000 cell/well) in a 96-well format and maintained in serum-free medium consisting of Neurobasal Medium supplemented with B27 and GlutaMAX (Gibco). Pre-coated poly-L-lysine coated plates are used because of the preferential adherence and survival of hippocampal neurons on this matrix support.
(§2) Potent neuroprotection is the distinguishing characteristic that separates this program's anticonvulsants from all other commercial drugs for epilepsy. The experimental details and the rationale for the implemented assays are essential in differentiating these compounds from that of others. The central objective of all neuroprotective assays was their relevancy to excitotoxicity and oxidative stress related to epilepsy. Both the amount of glutamate and hydrogen peroxide used in the assays, as well as the time of treatment and duration of the experiment, were designed to be relevant to epilepsy. Further, all time parameters employed in these studies were empirically determined to be within the limits of reversible toxic events, yet using amounts of glutamate and hydrogen peroxide that were relevant to the disease. In regard to glutamate toxicity, a critical feature was the duration of treatment of the hippocampal neurons. The rational for using a short 5 min treatment with glutamate was based on the observation of Randall and Thayer (Randall, R. D.; Thayer, S. A. Glutamate-induced calcium transient triggers calcium overload and neurotoxicity in rat hippocampal neurons, J. Neurosci. 1992, 12, 1882-1895). […] The rationale is that this intense burst of glutamate and resulting calcium overload is relevant to seizures and therefore was important data to capture in the screening assay. The amount of glutamate (30 μM) employed in our screening was based on the basal levels of glutamate observed in microdialysis measurements of hippocampus from epileptogenic patients (Cavus et al. Decreased hippocampal volume on MRI is associated with increased extracellular glutamate in epilepsy patients, Epilepsia, 2008, 49, 1358-1366). In regard to hydrogen peroxide, the amount employed (10 μM) was detected in the hippocampus of rats after kainate-induced status epilepticus (Jarrett et. al., Mitochondrial DNA damage and impaired base excision repair during epileptogenesis, Neurobiol. Dis. 2008, 30, 130-138). To produce neural damage and death with these amounts of glutamate and hydrogen peroxide, the cultures were changed to a medium with significant depletion of antioxidant components in the defined medium supplement B-27 just prior to treatment with the compounds. This was performed to obtain a significant and reproducible toxic signal in the hippocampal neurons and because loss of antioxidant control may be a component of epileptogenesis (Waldbaum and Patel, Mitochondria, oxidative stress and temporal lobe epilepsy, Epilepsy Res. 2010 88, 23-45; Wu et al., Mitochondrial DNA mutation-elicited oxidative stress, oxidative damage, and altered gene expression in cultured cells of patients with MERRF syndrome, Mol. Neurobiol. 2010, 41, 256-266). Neuroprotection studies with hydrogen peroxide were conducted with cultures that were between day 12 and day 18. Studies of neuroprotection glutamate were conducted between day 19 and day 22. […]

[3] = tested on: Hippocampal Cultures; assay: Neuroprotection from hydrogen peroxide (oxidative stress), propidium iodide assay; format: cell-based; conditions: Rattus norvegicus, read-out: NP from Hydrogen Peroxide PI EC50
Excerpt: as §1, §2

[4] = tested on: Hippocampal Cultures; assay: Neuroprotection from hydrogen peroxide (oxidative stress), CFDA assay; format: cell-based; conditions: Rattus norvegicus, read-out: NP from Hydrogen Peroxide CFDA EC50
Excerpt: as §1, §2

[5] = tested on: Hippocampal Cultures; assay: Neuroprotection from glutamate excitotoxicity, CFDA (neuronal viability) assay; format: cell-based; conditions: Rattus norvegicus, read-out: NP from Glutamate CFDA EC50
Excerpt: as §1
as §2, with “compounds.” for “compounds. This was performed to obtain a significant and reproducible toxic signal in the hippocampal neurons and because loss of antioxidant control may be a component of epileptogenesis (Waldbaum and Patel, Mitochondria, oxidative stress and temporal lobe epilepsy, Epilepsy Res. 2010 88, 23-45; Wu et al., Mitochondrial DNA mutation-elicited oxidative stress, oxidative damage, and altered gene expression in cultured cells of patients with MERRF syndrome, Mol. Neurobiol. 2010, 41, 256-266). Neuroprotection studies with hydrogen peroxide were conducted with cultures that were between day 12 and day 18. Studies of neuroprotection glutamate were conducted between day 19 and day 22.”

[6] = tested on: MES-induced seizure spread; assay: Maximal electroshock seizure (MES) test, mouse; format: in vivo, mice
Description: (§3) Seizure-related assays, Maximal electroshock test: The most definitive assay for anti-seizure activity is the maximal electroshock (MES) test (Swinyard, E. A. Laboratory evaluation of antiepileptic drugs: review of laboratory methods, Epilepsia, 1969, 10, 107-119). […] With both rodent assays, the duration of action is of high importance as well as the potency of the response.
(§4) Methods to measure anticonvulsant activity: All tests were conducted by the Anticonvulsant Screening Program (ASP) of the National Institute of Neurological Disease and Stroke at the National Institutes of Health.
(§5) The Maximal Electroshock Seizure (MES) or Maximal Seizure Pattern Test: The MES is a model for generalized tonic-clonic seizures (Putnam and Merritt. Experimental determination of the anticonvulsant properties of some phenyl derivatives. Science 1937, 85, 113-118). It is highly reproducible with consistent endpoints. The behavioral and electrographic seizures generated in this model are consistent with the human disorder. This model identifies those compounds which prevent seizure spread.
(§6) In the MES test, an electrical stimulus of 0.2 s in duration (50 mA in mice and 150 mA in rat at 60 Hz) is delivered via corneal electrodes primed with an electrolyte solution containing an anesthetic agent. Mice are tested at 30 minutes and 4 hours following doses of 30, 100 and 300 mg/kg of test compound. Test compounds are administered intraperitoneally to the mice. Rats are tested at time intervals between 0.25 and 4 hours following a standard oral dose of 30 mg/kg. Abolition of the hindlimb tonic extensor component indicates the test compound's ability to inhibit MES-induced seizure spread.

[7] = tested on: 6-Hz psychomotor seizure; assay: 6 Hz psychomotor seizure test, mouse; format: in vivo, mice; conditions: ip
Description: Methods to measure anticonvulsant activity: All tests were conducted by the Anticonvulsant Screening Program (ASP) of the National Institute of Neurological Disease and Stroke at the National Institutes of Health. The 6 Hz Seizure Test: Compounds were further tested in the 6-Hz psychomotor seizure model. (Barton et al. Pharmacological characterization of the 6 Hz psychomotor seizure model of partial epilepsy. Epilepsy Res. 2001, 47, 217-227). This model is used to detect […] that may be useful for the treatment of therapy-resistant partial seizures. For this test, an alternative electrical stimulation paradigm is used with a low frequency (6 Hz), long duration (3 seconds) corneal stimulation. The seizure evoked by this low frequency stimulation is characterized by immobility, forelimb clonus, Straub tail and facial automatisms. Mice are tested from 15 min to 4 hours following an intraperitoneal dose of 100 mg/kg. Abolition of the clonic seizures indicates the ability of a compound to prevent partial or psychomotor seizures.

[8] = tested on: MES-induced seizure spread; assay: Maximal electroshock seizure (MES) test, rat; format: in vivo, rats; conditions: po
Description: as §3, §4, §5, §6

[9] = tested on: pentylenetetrazol-induced clonic seizures; assay: Subcutaneous pentylenetetrazol seizure test (scPTZ), mouse; format: in vivo, Carworth Farms No. 1 mice; conditions: pentylenetetrazol 85 mg/kg s.c., test compound intraperitoneally, read-out: Mouse PTZ ED50, s.c.
Description: Methods to measure anticonvulsant activity: All tests were conducted by the Anticonvulsant Screening Program (ASP) of the National Institute of Neurological Disease and Stroke at the National Institutes of Health. The subcutaneous pentylenetetrazol (metrazol) seizure test (scPTZ). This model primarily identifies compounds that raise seizure threshold. The behavioral seizure produced is not typical of absence epilepsy but clonic in nature. With some minor exceptions, the pharmacological profile of the scPTZ seizure model is consistent with the human condition. The scPTZ test utilizes a dose of pentylenetetrazol (85 mg/kg in Carworth Farms No. 1 mice and 70 mg/kg in Sprague-Dawley rats). This produces clonic seizures lasting for a period of at least five seconds in 97 percent of animals tested. At the anticipated time of testing the convulsant is administered subcutaneously. The test compound is administered intraperitoneally in mice and orally in rats. Animals are observed over a 30 minute period. Absence of clonic spasms in the observed time period indicates a compound's ability to abolish the effect of pentylenetetrazol on seizure threshold (Swinyard E A. Laboratory evaluation of antiepileptic drugs: review of laboratory methods. Epilepsia, 1969, 10, 107-119).

[10] = 30 μM glutamate 5 min, hippocampal cultures, 4 hour test period
[11] = 10 μM hydrogen peroxide, hippocampal cultures, 4 hour test period

| SMILES | Loss of neuronal viability from metal [1] | EC50 [2] | EC50 ([3]; 4 h) | EC50 ([4]; 4 h) | further results |
| --- | --- | --- | --- | --- | --- |
| O.O.O.O.O.O.[Cl-].[Cl-].[Co+2] [Cobalt Chloride hexahydrate] | 36% |  |  |  |  |
| CC(=O)[O-].CC(=O)[O-].O.[Cu+2] [Copper Acetate monohydrate] | 47% |  |  |  |  |
| NS(=O)(=O)NCC(F)c1ccccc1F (stereo not drawn) [Example 3, 2-Fluoro-2-(2-fluoro-phenyl)-ethylsulfamide] |  | 0.1 nM | 0.01 nM | 0.01 nM | EC50 [5]: 3 nM |
| COc1ccccc1C(F)(F)CNS(N)(=O)=O [Example 4, 2,2-Difluoro-2-(2-methoxyphenyl)-ethyl-1-sulfamide] |  | 1 nM | 1 nM | 0.1 nM |  |
| NS(=O)(=O)NCC(F)(F)c1ccccc1 [Example 5, 2,2-difluoro-2-phenyl-ethyl-1-sulfamide] |  |  |  |  | EC50 [2, 10]: 0.1 nM; Duration of action MES ([6]; Mouse Maximal Electroshock (MES) test at 100 mg/kg, i.p.): 4 h; ED50 ([6]; ip, mouse): 49 mg/kg; EC50 [3, 11]: 0.03 nM; ED50 [7]: 16 mg/kg; ED50 [8]: 26 mg/kg; EC50 [4, 11]: 0.1 nM; EC50 [5, 10]: 0.1 nM; ED50 [9]: 41 mg/kg |
| NS(=O)(=O)NCC(F)(F)c1csc2ccccc12 [Example 6, 2-Benzo[b]thiophen-3-yl-2,2-difluoro-ethyl sulfamide] |  | 0.1 nM | 1 nM | 0.1 nM | EC50 [5]: 0.1 nM |
| O.O.O.O.O.O.O=S(=O)([O-])[O-].[Fe+2] [Iron sulfate hexahydrate] | 31% |  |  |  |  |
| O.O.O.O.O.O.[Cl][Ni][Cl] [Nickel Chloride hexahydrate] | 33% |  |  |  |  |
